Experimental data: US6818765B1, “Benzene-sulphonamide derivatives and their uses” (Universite de Liege, priority 1999, dated 2004)
Like-named read-outs stand apart in the source and are kept apart here.

Target: T1, thromboxane A2 receptors (TPα) of human platelets (Homo sapiens, UniProt P21731)
T1 construct: endogenous in cells; host or cells: human platelets
T1 sequence (P21731 1-343): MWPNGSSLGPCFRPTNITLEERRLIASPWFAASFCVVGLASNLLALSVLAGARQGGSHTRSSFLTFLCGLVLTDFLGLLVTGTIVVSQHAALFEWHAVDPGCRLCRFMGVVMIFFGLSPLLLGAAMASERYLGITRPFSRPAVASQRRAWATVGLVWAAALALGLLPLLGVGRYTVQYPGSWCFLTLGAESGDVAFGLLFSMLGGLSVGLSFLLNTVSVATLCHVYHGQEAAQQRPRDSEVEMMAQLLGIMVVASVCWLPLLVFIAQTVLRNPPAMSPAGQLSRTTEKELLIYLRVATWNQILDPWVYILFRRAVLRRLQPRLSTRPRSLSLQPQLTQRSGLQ
Assay: Binding test: displacement of [3H]SQ-29.548 from human platelet thromboxane A2 receptors
Details: for inhibition at 1 µM: read-out: Affinity: percent of [3H]SQ-29.548 specifically substituted by the examined compound, compound 10^-6 M; for inhibition at 0.1 µM: read-out: Affinity: percent of [3H]SQ-29.548 specifically substituted by the examined compound, compound 10^-7 M
Description: To operate a first selection, the capacity of these compounds to displace in a specific way a tritium ligand, the [^3H]
Cozzi P., Giordani A., Menichincheri M., Pillan A., Pinciroli V., Rossi A., Tonani R., Volpi D., Tamburin M., Ferrario R., Fusar D., Salvati P.,—Agents combining thromboxane receptor antagonism with thromboxane synthase inhibition:[[[2-(1H-imidazol-1-yl)ethylidene]amino]oxy]alkanoic acids.—J. Med. Chem., 1994, 37, 3588-3604.

[1] = read-out: IC 50: concentration required for replacing 50% of [3H]SQ-29.548 bound to receptors TPα

CC(C)NC(=O)NS(=O)(=O)c1cc(F)ccc1NC1C=CCCC1 (centres unmarked) [Compound 69]
Affinity: percent of [3H]SQ-29.548 specifically substituted by the examined compound, 10^-6M: 13.2%

Cc1cccc(Nc2ccc([N+](=O)[O-])cc2S(=O)(=O)NC(=S)NC(C)C)c1 [Compound 11]
Affinity: percent of [3H]SQ-29.548 specifically substituted by the examined compound, 10^-6M: 63.7%

Cc1cccc(Nc2ccc([N+](=O)[O-])cc2S(=O)(=O)NC(=O)NC(C)C)c1C [Compound 49]
IC50: 2 nM
inhibition at 1 µM: 98.3%
inhibition at 0.1 µM: 94.9%

Cc1cc(C)cc(Nc2ccc([N+](=O)[O-])cc2S(=O)(=O)NC(=O)NC(C)C)c1 [Compound 88]
IC50: 16.2 nM
inhibition at 1 µM: 95.4%
inhibition at 0.1 µM: 82%

CCCCCCNc1ccc([N+](=O)[O-])cc1S(=O)(=O)NC(=O)NC(C)C [Compound 57]
Affinity: percent of [3H]SQ-29.548 specifically substituted by the examined compound, 10^-6M: 67.0%

CC(C)NC(=O)NS(=O)(=O)c1cc([N+](=O)[O-])ccc1NC1C=CCCC1 (centres unmarked) [Compound 68]
Affinity: percent of [3H]SQ-29.548 specifically substituted by the examined compound, 10^-6M: 93.2%
Affinity: percent of [3H]SQ-29.548 specifically substituted by the examined compound, 10^-7M: 67.4%

CCCCCNC(=O)NS(=O)(=O)c1cc(I)ccc1NC1C=CCCC1 (centres unmarked) [Compound 93]
IC50: 7.8 nM
inhibition at 1 µM: 97.9%
inhibition at 0.1 µM: 90.2%

Cc1ccccc1Nc1ccc([N+](=O)[O-])cc1S(=O)(=O)NC(=O)NC(C)C [Compound 30]
Affinity: percent of [3H]SQ-29.548 specifically substituted by the examined compound, 10^-6M: 95.1%
Affinity: percent of [3H]SQ-29.548 specifically substituted by the examined compound, 10^-7M: 80.8%

CCCNc1ccc([N+](=O)[O-])cc1S(=O)(=O)NC(=S)NC(C)C [Compound 35]
Affinity: percent of [3H]SQ-29.548 specifically substituted by the examined compound, 10^-6M: 45.0%

CC(C)NC(=O)NS(=O)(=O)c1cc(Br)ccc1NC1C=CCCC1 (centres unmarked) [Compound 71]
Affinity: percent of [3H]SQ-29.548 specifically substituted by the examined compound, 10^-6M: 77.8%

CC(C)NC(=O)NS(=O)(=O)c1cc([N+](=O)[O-])ccc1NC1CC2CCC1C2 (centres unmarked) [Compound 54]
Affinity: percent of [3H]SQ-29.548 specifically substituted by the examined compound, 10^-6M: 91.7%

Cc1ccc(Nc2ccc([N+](=O)[O-])cc2S(=O)(=O)NC(=O)NC(C)C)c(C)c1 [Compound 90]
IC50: 5.46 nM
inhibition at 1 µM: 96.9%
inhibition at 0.1 µM: 88.6%

O=[N+]([O-])c1ccc(NC2CCCCC2)c(S(=O)(=O)NC(=S)NCc2ccco2)c1 [Compound 42]
Affinity: percent of [3H]SQ-29.548 specifically substituted by the examined compound, 10^-6M: 92.3%
Affinity: percent of [3H]SQ-29.548 specifically substituted by the examined compound, 10^-7M: 50.5%

CCCCCNC(=O)NS(=O)(=O)c1cc([N+](=O)[O-])ccc1Nc1c(C)cc(C)cc1C [Compound 92]
IC50: 1.62 nM
inhibition at 1 µM: 98.8%
inhibition at 0.1 µM: 95.2%

C[C@@H](Nc1ccc([N+](=O)[O-])cc1S(=O)(=O)NC(=O)NC(C)(C)C)c1ccccc1 [Compound 80]
IC50: 2.4 nM
inhibition at 1 µM: 98.6%
inhibition at 0.1 µM: 97.9%

C=CCNC(=O)NS(=O)(=O)c1cc([N+](=O)[O-])ccc1NC1CCCCCCC1 [Compound 34]
Affinity: percent of [3H]SQ-29.548 specifically substituted by the examined compound, 10^-6M: 77.3%

CCCCCNC(=O)NS(=O)(=O)c1cc(C#N)ccc1NC1CCCCC1 [Compound 97]
IC50: 98.5 nM
inhibition at 1 µM: 89.7%

O=[N+]([O-])c1ccc(NC2CCCCC2)c(S(=O)(=O)NC(=S)NC2CCCCC2)c1 [Compound 16]
Affinity: percent of [3H]SQ-29.548 specifically substituted by the examined compound, 10^-6M: 100%
Affinity: percent of [3H]SQ-29.548 specifically substituted by the examined compound, 10^-7M: 46.1%

CC(C)NC(=O)NS(=O)(=O)c1cc([N+](=O)[O-])ccc1N1CCCCCC1 [Compound 64]
Affinity: percent of [3H]SQ-29.548 specifically substituted by the examined compound, 10^-6M: 57.8%

CC(C)NC(=S)NS(=O)(=O)c1cc([N+](=O)[O-])ccc1NC1CCCCC1 [Compound 38]
Affinity: percent of [3H]SQ-29.548 specifically substituted by the examined compound, 10^-6M: 77.2%

C[C@H](Nc1ccc([N+](=O)[O-])cc1S(=O)(=O)NC(=O)NC(C)(C)C)c1ccccc1 [Compound 78]
IC50: 4.2 nM
inhibition at 1 µM: 95.3%
inhibition at 0.1 µM: 71.6%

Cc1cccc(Nc2ccc([N+](=O)[O-])cc2S(=O)(=O)NC(=NC#N)NC(C)C)c1 [Compound 3]
Affinity: percent of [3H]SQ-29.548 specifically substituted by the examined compound, 10^-6M: 20.1%

Cc1cccc(Nc2ccc([N+](=O)[O-])cc2S(=O)(=O)NC(=C[N+](=O)[O-])NC2CCCCC2)c1 [Compound 10]
Affinity: percent of [3H]SQ-29.548 specifically substituted by the examined compound, 10^-6M: 57.7%

Cc1ccccc1Nc1ccc([N+](=O)[O-])cc1S(=O)(=O)NC(=O)NC(C)(C)C [Compound 52]
Affinity: percent of [3H]SQ-29.548 specifically substituted by the examined compound, 10^-6M: 99.0%
Affinity: percent of [3H]SQ-29.548 specifically substituted by the examined compound, 10^-7M: 93.9%
IC50 [1]: 2.8 nM

CC(C)(C)NC(=O)NS(=O)(=O)c1cc([N+](=O)[O-])ccc1N1CCOCC1 [Compound 63]
Affinity: percent of [3H]SQ-29.548 specifically substituted by the examined compound, 10^-6M: 7.5%

CC(C)NC(=NC#N)NS(=O)(=O)c1cc([N+](=O)[O-])ccc1NC1CCCCC1 [Compound 7]
Affinity: percent of [3H]SQ-29.548 specifically substituted by the examined compound, 10^-6M: 42.9%

N#CN=C(NC1CCCCC1)NS(=O)(=O)c1cc([N+](=O)[O-])ccc1NC1CCCCC1 [Compound 5]
Affinity: percent of [3H]SQ-29.548 specifically substituted by the examined compound, 10^-6M: 72.1%

Cc1ccc(Nc2ccc([N+](=O)[O-])cc2S(=O)(=O)NC(=O)NC(C)(C)C)cc1 [Compound 67]
Affinity: percent of [3H]SQ-29.548 specifically substituted by the examined compound, 10^-6M: 98.3%
Affinity: percent of [3H]SQ-29.548 specifically substituted by the examined compound, 10^-7M: 95.8%
IC50 [1]: 1.3 nM

CC(C)NC(=O)NS(=O)(=O)c1cc(C#N)ccc1NC1CC2CCC1C2 (centres unmarked) [Compound 66]
Affinity: percent of [3H]SQ-29.548 specifically substituted by the examined compound, 10^-6M: 49.6%

CC(C)NC(=O)NS(=O)(=O)c1cc(C#N)ccc1NC1CCCCC1 [Compound 43]
Affinity: percent of [3H]SQ-29.548 specifically substituted by the examined compound, 10^-6M: 50.0%

CCCNC(=O)NS(=O)(=O)c1cc([N+](=O)[O-])ccc1NC1CCCCC1 [Compound 81]
IC50: 57.8 nM
inhibition at 1 µM: 93.3%
inhibition at 0.1 µM: 65%

CC(C)NC(=S)NS(=O)(=O)c1cc([N+](=O)[O-])ccc1NC1CCCCC1 [Compound 14]
Affinity: percent of [3H]SQ-29.548 specifically substituted by the examined compound, 10^-6M: 92.9%
Affinity: percent of [3H]SQ-29.548 specifically substituted by the examined compound, 10^-7M: 34.0%

O=C(Nc1ccccc1)NS(=O)(=O)c1cc([N+](=O)[O-])ccc1NC1CCCCC1 [Compound 65]
Affinity: percent of [3H]SQ-29.548 specifically substituted by the examined compound, 10^-6M: 46.6%

CC(C)NC(=O)NS(=O)(=O)c1cc([N+](=O)[O-])ccc1NC1CCCCCCCCCCC1 [Compound 48]
Affinity: percent of [3H]SQ-29.548 specifically substituted by the examined compound, 10^-6M: 51.9%

CC(C)NC(=O)NS(=O)(=O)c1cc(Cl)ccc1NC1C=CCCC1 (centres unmarked) [Compound 70]
Affinity: percent of [3H]SQ-29.548 specifically substituted by the examined compound, 10^-6M: 63.8%

O=C(NC1CCCCC1)NS(=O)(=O)c1cc([N+](=O)[O-])ccc1NC1CCCCCCC1 [Compound 23]
Affinity: percent of [3H]SQ-29.548 specifically substituted by the examined compound, 10^-6M: 95.5%
Affinity: percent of [3H]SQ-29.548 specifically substituted by the examined compound, 10^-7M: 62.9%

Cc1cccc(C)c1Nc1ccc([N+](=O)[O-])cc1S(=O)(=O)NC(=O)NC(C)C [Compound 91]
IC50: 3.31 nM
inhibition at 1 µM: 97.3%
inhibition at 0.1 µM: 90.8%

CC(C)NC(=S)NS(=O)(=O)c1cc([N+](=O)[O-])ccc1NCc1ccccc1 [Compound 36]
Affinity: percent of [3H]SQ-29.548 specifically substituted by the examined compound, 10^-6M: 75.6%

CC(C)NC(=O)NS(=O)(=O)c1cc([N+](=O)[O-])ccc1N[C@@H](C)c1ccccc1 [Compound 77]
Affinity: percent of [3H]SQ-29.548 specifically substituted by the examined compound, 10^-6M: 79.4%

CC(C)NC(=O)NS(=O)(=O)c1cc(I)ccc1NC1C=CCCC1 (centres unmarked) [Compound 72]
Affinity: percent of [3H]SQ-29.548 specifically substituted by the examined compound, 10^-6M: 86.5%
Affinity: percent of [3H]SQ-29.548 specifically substituted by the examined compound, 10^-7M: 52.7%

O=[N+]([O-])c1ccc(NC2CCCCCCC2)c(S(=O)(=O)NC(=S)NC2CCCCC2)c1 [Compound 41]
Affinity: percent of [3H]SQ-29.548 specifically substituted by the examined compound, 10^-6M: 75.9%

CC(C)NC(=O)NS(=O)(=O)c1cc([N+](=O)[O-])ccc1NC12CC3CC(CC(C3)C1)C2 [Compound 58]
Affinity: percent of [3H]SQ-29.548 specifically substituted by the examined compound, 10^-6M: 83.2%

CC(C)(C)NC(=NC#N)NS(=O)(=O)c1cc([N+](=O)[O-])ccc1NC1CCCCC1 [Compound 74]
Affinity: percent of [3H]SQ-29.548 specifically substituted by the examined compound, 10^-6M: 90.9%

C=CCNC(=O)NS(=O)(=O)c1cc([N+](=O)[O-])ccc1NC1CCCCCC1 [Compound 33]
Affinity: percent of [3H]SQ-29.548 specifically substituted by the examined compound, 10^-6M: 86.6%
Affinity: percent of [3H]SQ-29.548 specifically substituted by the examined compound, 10^-7M: 52.4%

CC(C)(C)NC(=O)NS(=O)(=O)c1cc([N+](=O)[O-])ccc1NC1CC2CCC1C2 (centres unmarked) [Compound 55]
IC50: 3.4 nM
inhibition at 1 µM: 98.2%
inhibition at 0.1 µM: 93.3%

CC(C)NC(=S)NS(=O)(=O)c1cc([N+](=O)[O-])ccc1NC1CCCC1 [Compound 37]
Affinity: percent of [3H]SQ-29.548 specifically substituted by the examined compound, 10^-6M: 72.3%

CCOC(=O)NS(=O)(=O)c1cc([N+](=O)[O-])ccc1NC1CCCC1 [Compound 45]
Affinity: percent of [3H]SQ-29.548 specifically substituted by the examined compound, 10^-6M: 79.9%
Affinity: percent of [3H]SQ-29.548 specifically substituted by the examined compound, 10^-7M: 50.4%

Cc1cccc(Nc2ccc([N+](=O)[O-])cc2S(=O)(=O)NC(=NC#N)NC(C)(C)C)c1 [Compound 51]
Affinity: percent of [3H]SQ-29.548 specifically substituted by the examined compound, 10^-6M: 64.7%

CC(C)NC(=O)NS(=O)(=O)c1cc([N+](=O)[O-])ccc1NC(C)(C)C [Compound 56]
Affinity: percent of [3H]SQ-29.548 specifically substituted by the examined compound, 10^-6M: 0.0%
